The record followed here is PMC7909954 (eLife, 2021).

Experiment [1] concerns the target T1, MOR (Homo sapiens, UniProt P35372). The experiment in a line: Radioligand binding counter-screen (NIMH PDSP). Details: NIMH Psychoactive Drug Screening Program.
Experiment [2] has as its target T2, rKOR (Rattus norvegicus, UniProt P34975). As to the kind of experiment: cell-based.
Experiment [3] has as its target all screened targets except SERT and α2C-adrenoreceptors. As to the kind of experiment: Radioligand binding counter-screen (NIMH PDSP), remaining targets. To be noted: non-opioid targets.
In experiment [4] the target is T3, mDOR (Mus musculus, UniProt P32300). The experiment in a line: biochemical. The conditions noted are these: read-out: Emax mDOR [35S]GTPγS.
T3 sequence (P32300 whole entry): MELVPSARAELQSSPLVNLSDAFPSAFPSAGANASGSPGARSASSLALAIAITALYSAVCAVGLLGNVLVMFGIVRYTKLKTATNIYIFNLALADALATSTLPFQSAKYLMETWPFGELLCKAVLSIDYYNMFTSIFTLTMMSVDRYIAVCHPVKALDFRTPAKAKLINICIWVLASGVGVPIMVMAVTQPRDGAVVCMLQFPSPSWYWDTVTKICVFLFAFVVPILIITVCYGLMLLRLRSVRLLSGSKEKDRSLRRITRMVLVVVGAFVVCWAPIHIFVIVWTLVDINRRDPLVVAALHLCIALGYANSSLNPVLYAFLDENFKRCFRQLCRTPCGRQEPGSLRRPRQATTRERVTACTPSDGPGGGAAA
In the next experiment the target is Y312W-hKOR (Homo sapiens, UniProt P41145, Y312W). As to the kind of experiment: cell-based.
Sequence of Y312W-hKOR (P41145 whole entry Y312W): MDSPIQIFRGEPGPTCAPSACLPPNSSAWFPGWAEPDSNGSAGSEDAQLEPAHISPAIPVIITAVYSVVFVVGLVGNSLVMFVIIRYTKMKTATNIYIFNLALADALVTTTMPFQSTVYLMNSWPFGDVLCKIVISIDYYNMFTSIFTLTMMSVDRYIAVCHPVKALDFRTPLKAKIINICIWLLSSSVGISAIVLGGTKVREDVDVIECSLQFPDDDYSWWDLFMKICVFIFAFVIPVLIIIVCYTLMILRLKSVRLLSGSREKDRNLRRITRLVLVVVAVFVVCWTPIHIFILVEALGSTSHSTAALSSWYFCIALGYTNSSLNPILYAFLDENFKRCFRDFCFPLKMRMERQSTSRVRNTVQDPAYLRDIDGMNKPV
In experiment [5] the target is T3, mDOR. The conditions noted are these: binding assays.
The target in experiment [6] is T2, rKOR. To be noted: BRET, rodent receptors.
The target of experiment [7] is T1, MOR.

A value given as a limit tells only on which side of the number the result lay.

T2 sequence (P34975 whole entry): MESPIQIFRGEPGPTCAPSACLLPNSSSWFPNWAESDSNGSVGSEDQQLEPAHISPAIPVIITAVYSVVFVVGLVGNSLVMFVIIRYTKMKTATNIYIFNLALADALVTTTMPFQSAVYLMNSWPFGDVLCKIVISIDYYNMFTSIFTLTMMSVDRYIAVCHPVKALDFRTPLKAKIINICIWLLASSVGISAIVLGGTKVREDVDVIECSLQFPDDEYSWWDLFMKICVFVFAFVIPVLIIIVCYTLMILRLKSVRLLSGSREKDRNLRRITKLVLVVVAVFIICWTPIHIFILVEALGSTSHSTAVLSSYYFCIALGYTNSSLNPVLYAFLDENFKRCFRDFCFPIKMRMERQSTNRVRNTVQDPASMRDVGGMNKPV
T1 sequence (P35372 whole entry): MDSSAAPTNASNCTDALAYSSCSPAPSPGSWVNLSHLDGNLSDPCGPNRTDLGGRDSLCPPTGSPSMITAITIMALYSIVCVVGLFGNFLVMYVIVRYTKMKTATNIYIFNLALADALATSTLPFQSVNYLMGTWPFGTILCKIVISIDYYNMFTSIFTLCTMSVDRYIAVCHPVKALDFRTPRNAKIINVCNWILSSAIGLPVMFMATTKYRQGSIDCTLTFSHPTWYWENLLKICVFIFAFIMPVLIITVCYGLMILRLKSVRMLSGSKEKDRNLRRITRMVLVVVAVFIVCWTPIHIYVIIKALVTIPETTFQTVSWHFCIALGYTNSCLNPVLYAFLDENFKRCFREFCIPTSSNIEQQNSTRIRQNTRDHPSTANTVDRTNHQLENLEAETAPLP

As to `NCc1cccc(C(=O)N[C@@H]2CCC3C4Cc5ccc(O)c6c5[C@@]3(CCN4CC3CC3)C2O6)c1` (stereo partly drawn) [MP1207, 3-(Aminomethyl)-N-((7R,12bS)−3-(cyclopropylmethyl)−9-hydroxy-2,3,4,4a,5,6,7,7a-octahydro-1H-4,12-methanobenzofuro[3,2-e]isoquinolin-7-yl)benzamide], the Ki on MOR [1] was 0.39 nM; in experiment [3] it was over 10000 nM. In addition, the results for the EC50 at rKOR [2] and at Y312W-hKOR were 1.13 nM and 0.16 nM, respectively. Further, the Emax at rKOR [2] (HEK-293T, read-out: Emax% G protein activation (BRET) rKOR) was 32 ± 2.3%; on mDOR [4] it was 10 to 15%; on Y312W-hKOR (read-out: Emax% cAMP inhibition Y312W-hKOR), 95 ± 1.8%. For the same molecule, the “selectivity for MOR and KOR over DOR” value at mDOR [5] is listed as “more than 40 fold”. Besides, on rKOR [6], the “arrestin recruitment at rKOR (in words)” value was “No recruitment of βarrestin-2”. Moreover, the “arrestin recruitment at hMOR (in words)” value at MOR [7] is on record as “completely abolished”.
